Assay results: patent US20240415801A1, “Methods and Compositions for Treating Fibroids” (Lundquist Institute for Biomedical Innovation at …, priority 2023, published 2024)

Experiments:
Format in all cases: in vivo, SCID/Beige mice
[1] = test system: fibroid xenografts; assay: Immunoblotting of fibroid xenografts (Example 1); settings: 20 mg/kg daily, 8 weeks
From the text: Protein extracted from the xenografts underwent immunoblotting as previously described. Primary antibodies targeting COL3A1, FN1, SPARC, TDO2, and Cleaved Caspase 3 were purchased from Proteintech Group, Inc. (Chicago, IL, USA). Band densities of specific proteins were quantified using the Image J program (http://imagej.nih.gov/ij/), and normalized to a Ponceau S staining band on the membrane. Results were expressed as means±SEM, and are presented as ratios relative to the control group, designated as 1.

[2] = test system: fibroid xenografts; assay: Total collagen enzyme-linked immunosorbent assay of xenografts (Example 1); settings: 20 mg/kg daily, 8 weeks, vs controls
Experimental: The total collagen content in xenografts was assessed in duplicate using the QuickZyme Total Collagen Assay Kit (QuickZyme Biosciences, Leiden, Netherlands), following the manufacturer's instructions as previously described. Absorbance readings were taken spectrophotometrically at a wavelength of 570 nm, and concentrations were determined by comparing sample optical density values to a standard curve. Total collagen levels were quantified as μg/ml of protein and reported as fold change relative to the vehicle group.

[3] = Blood chemistry panel (Example 1); settings: 20 mg/kg daily i.p.
Experimental: After 8 weeks of treatment with either the vehicle or Bay, plasma chemistry was analyzed. Specifically, 100 μL of plasma was transferred into the Comprehensive Diagnostic Profile Rotor (#500-1038, Abaxis, Union City, CA, USA). Subsequently, the levels of glucose, creatinine, BUN, phosphorus, sodium, albumin, alkaline phosphatase, serum glutamic pyruvic transaminase (SGPT; ALT), total protein, globulin, total bilirubin, and amylase were assessed using the VetScan VS2 chemistry analyzer (Abaxis, Union City, CA, USA) as previously described.

## Cc1ccc(S(=O)(=O)/C=C/C#N)cc1 [Bay 11-7082]
[1]
  protein abundance of COL3A1, FN1, SPARC, TDO2 (Western blot): inhibited
[2]
  total collagen protein levels: significant decrease
[3]; 8 weeks
  changes in blood chemistry including liver, kidney and pancreatic function: no changes
[3]; plasma after 8 weeks
  Albumin (mean ± SEM): 3.5 ± 0.14 g/dL
  Alkaline phosphatase (mean ± SEM): 91.9 ± 20.05 U/l
  Amylase (mean ± SEM): 643.0 ± 36.82 U/l
  BUN (mean ± SEM): 27.1 ± 5.75 mg/dL
  Creatinine (mean ± SEM): 0.4 ± 0.03 mg/dL
  Globulin (mean ± SEM): 1.1 ± 0.24 g/dL
  Glucose (mean ± SEM): 261.0 ± 14.63 mg/dL
  Phosphorus (mean ± SEM): 10.1 ± 0.53 mg/dL
  SGPT (ALT) (mean ± SEM): 54.5 ± 8.71 U/l
  Sodium (mean ± SEM): 155.3 ± 1.35 mEq/l
  Total bilirubin (mean ± SEM): 0.3 ± 0.04 mg/dL
  Total protein (mean ± SEM): 4.6 ± 0.16 g/dL
